According to patent US20060030616A1, “Anhydride modified cantharidin analogues useful in the treatment of cancer” (priority 1998, published 2006):
Read-outs that look alike come from different tables or passages of the source.

Experiments:
[1] = system: protein phosphatase 1 (PP1); experiment: Inhibition of protein phosphatase 1, [32P]-phosphorylase substrate; format: biochemical, chicken; conditions: for Inhibition of PP1 (%): initial screening at 100 mM (so in the source)
Protocol: (§1) All synthesised compounds were tested for their ability to inhibit protein phosphatases 1 and 2A. Initial investigations were carried out at 100 mM. Promising analogues were then assayed in triplicate for estimation of IC50 values.
(§2) Protein phosphatase 1 and 2A were partially purified from chicken skeletal muscle essentially as described by Cohen Protein phosphatase activity was measured at 37° C. in 50 mM Tris-HCl buffer (pH 7.4), 0.1 mM EDTA, 5 mM caffeine, 0.1% 2-mercaptoethanol and 1 mg/ml bovine serum albumin using […] [^32P]-phosphorylase as substrate. The total assay volume was […]. The assay conditions were restricted to 20% dephosphorylation to ensure linearity and inhibition of protein phosphatase activity was determined by including cantharidin or its analogues at the required concentrations in the reaction buffer. Reactions were terminated by the addition of 0.1 ml ice cold 20% trichloroacetic acid. Precipitated protein was pelleted by centrifugation and the radioactivity in the supernatant measured by liquid scintillation counting. Data is expressed as the percentage inhibition with respect to a control (absence of a competing compound) incubation.
(§3) Anhydrides and simple analogues were synthesised according to literature procedures (Eggelte et. al; 1973), and then subjected to a PP1 and PP2A bio-assay (see biochemistry) to determine their ability to inhibit these enzymes. The results of initial screening at 100 mMs are shown in Table 4, along with IC50 values in some instances.

[2] = target: protein phosphatase 2A (PP2A) (Gallus gallus, UniProt P48463); experiment: Inhibition of protein phosphatase 2A, [32P]-phosphorylase substrate; format: biochemical, chicken; parameters: inhibition: dose or concentration left out as unconfirmed
Protocol: as §1, §2, §3

[3] = system: protein phosphatase 2A (PP2A); conditions: cited from earlier work; for IC50: background art
[4] = Stability under assay conditions; format: physicochemical; conditions: PP assay conditions
[5] = system: L1210 cells; experiment: MTT cytotoxicity assay, 72 h; format: cell-based, murine; conditions: L1210, p53 wt; read-out: IC50 (mean ± SE) after 72 h continuous exposure
Protocol: (§4) Cells in a subconfluent phase are transferred to 96-well microtitre plates. L1210 cells are plated at a density of 1000 cells/well in 100 μl medium, while all other cell lines are plated at a density of 2000-25000 cells/well. The cells are left for 24 h prior to treatment to ensure exponential growth has been achieved, 24 h after plating (day 0), 100 μl of phosphatase inhibitor is added to each well, control wells received 100 μl of medium only. Drug exposure time is 72 h (day 3). The effect of phosphatase inhibition is tested in triplicate over a concentration range of […]−1×10^−8 M. Growth inhibitory effects are evaluated using the MTT assay and absorbance read at […]. The IC50 is the drug concentration at which cell growth is 50% inhibited based on the difference of optical density on day 0 and day 3 of drug exposure. Cytotoxicity is evaluated using a spectrophotometric assay which determines the percentage of cell growth following exposure of the cells to various concentrations of the phosphatase inhibitors for a period of 72 hours. The subsequent dose response curve is used to calculate IC50 values (the drug concentration at which cell growth is 50% inhibited).
(§5) Anti-cancer screening of the protein phosphatase inhibitors is assessed using the MTT assay. This assay determines cell viability by the ability of mitochondrial dehydrogenase to produce formazan crystals from 3-(4,5-dimethylthiazol-2-yl)-2,5-diphenyltetrazolium bromide. The viable cell number/well is directly proportional to the production of formazan, which following solubilization, can be measured spectrophotometrically (540 nm). This technique is also used by the National Cancer Institute to screen for new anticancer agents.
(§6) As described herein a number of cantharidin analogues have been synthesised and tested for their anticancer activity in nine cancer cell lines using the MTT assay after 72 h exposure. These new analogues are shown in FIG. 2 and have been designated MK-1 through to MK-9.

[6] = system: A2780 cells; experiment: MTT cytotoxicity assay, 72 h; format: cell-based, human; conditions: A2780, p53 wt; read-out: IC50 (mean ± SE) after 72 h continuous exposure
Protocol: as §4, §5, §6

[7] = system: 143B cells; experiment: MTT cytotoxicity assay, 72 h; format: cell-based, human; conditions: p53 mt, read-out: IC50 (mean ± SE) after 72 h continuous exposure
Protocol: as §4, §5, §6

[8] = system: ADDP cells; experiment: MTT cytotoxicity assay, 72 h; format: cell-based, human; conditions: p53 mt, read-out: IC50 (mean ± SE) after 72 h continuous exposure
Protocol: as §4, §5, §6

[9] = system: SW480 cells; experiment: MTT cytotoxicity assay, 72 h; format: cell-based, human; conditions: SW480, p53 mt; read-out: IC50 (mean ± SE) after 72 h continuous exposure
Protocol: as §4, §5, §6

[10] = system: HCT116 cells; experiment: MTT cytotoxicity assay, 72 h; format: cell-based, human; conditions: HCT116, p53 wt; read-out: IC50 (mean ± SE) after 72 h continuous exposure
Protocol: as §4, §5, §6

[11] = system: WiDr cells; experiment: MTT cytotoxicity assay, 72 h; format: cell-based, human; conditions: p53 mt, read-out: IC50 (mean ± SE) after 72 h continuous exposure
Protocol: as §4, §5, §6

[12] = system: HL60 cells; experiment: MTT cytotoxicity assay, 72 h; format: cell-based, human; conditions: HL60, p53 nul; read-out: IC50 (mean ± SE) after 72 h continuous exposure
Protocol: as §4, §5, §6

[13] = system: HT29 cells; experiment: MTT cytotoxicity assay, 72 h; format: cell-based, human; conditions: HT29, p53 mt; read-out: IC50 (mean ± SE) after 72 h continuous exposure
Protocol: as §4, §5, §6

[14] = system: nine cancer cell lines; experiment: MTT cytotoxicity assay, 72 h, ranges over cell line panel; format: cell-based
Protocol: as §4, §5, §6

[15] = target: protein phosphatase 1 (PP1); conditions: background art; cited from earlier work
[16] = nine cell lines, read-out: IC50 range across all cell lines tested

Sequence of protein phosphatase 2A (PP2A) (Gallus gallus, UniProt P48463) (P48463 whole entry): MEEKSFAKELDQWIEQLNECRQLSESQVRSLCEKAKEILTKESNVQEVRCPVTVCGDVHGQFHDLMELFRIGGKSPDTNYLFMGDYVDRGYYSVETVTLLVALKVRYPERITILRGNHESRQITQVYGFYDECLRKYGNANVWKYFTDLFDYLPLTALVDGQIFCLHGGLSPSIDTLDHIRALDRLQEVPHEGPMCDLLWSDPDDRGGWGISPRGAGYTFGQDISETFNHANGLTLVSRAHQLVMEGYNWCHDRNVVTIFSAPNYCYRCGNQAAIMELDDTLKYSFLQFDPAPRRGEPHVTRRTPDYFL

COC(=O)C1C2C=CC(S2)C1C(=O)OC (stereo not shown)
Inhibition of PP1 (%) [1]: 3%

O=C1NC(=O)C2C3CCC(S3)C12 (stereo not shown)
Inhibition of PP1 (%) [1]: 15%

O=C1OC(=O)C2C3CCC(O3)C12 (stereo not shown) [Compound 1]
inhibition [2]: 97% | IC50 [1]: 2.4 µM | Selectivity PP2A/PP1 [1]: 0.875 | Inhibition of PP1 (%) [1]: 90%

O=C1OC(=O)C2C3C=CC(O3)C12 (stereo not shown) [Compound 2, norcantharidin, reference compound]
inhibition [2]: 95%

O=C1OC(=O)[C@H]2[C@@H]1[C@H]1CC[C@H]2O1 [Compound 2, norcantharidin]
Previously reported PP2A selectivity ([3]; PP2A over PP1): ~10 fold | Inhibition of PP2A (%) ([2]; initial screening at 100 mM (so in the source)): 95% | Stability under assay conditions [4]: rapid conversion to the dicarboxylic acid

COC(=O)C1C2C=CC(O2)C1C(=O)OC (stereo not shown) [Compound 3]
inhibition [2]: 6% | IC50 [1]: 50 µM | Selectivity PP2A/PP1 [1]: >200 | Inhibition of PP1 (%) [1]: 46%

CO[C@H]1OC(=O)C2C3CCC(O3)C21 (stereo partly shown) [Compound 4]
inhibition [2]: 11% | Inhibition of PP1 (%) [1]: 13%

CO[C@@H]1OC(=O)C2C3CCC(O3)C21 (stereo partly shown) [Compound 5]
inhibition [2]: 8% | Inhibition of PP1 (%) [1]: 15%

O=C1OC(O)C2C3CCC(O3)C12 (stereo not shown) [Compound 6]
inhibition [2]: 11% | Inhibition of PP1 (%) [1]: 9%

O=C1OCC2C3CCC(O3)C12 (stereo not shown) [Compound 7]
inhibition [2]: 21%

O=C1NC(=O)C2C3C=CC(S3)C12 (stereo not shown) [MK-1]
IC50 [5]: > 1000 µM | IC50 [6]: > 1000 µM | IC50 [7]: > 1000 µM | IC50 [8]: > 1000 µM | IC50 [9]: > 1000 µM | IC50 [10]: > 1000 µM | IC50 [11]: > 1000 µM | IC50 [12]: > 1000 µM | IC50 [13]: > 1000 µM | IC50 [14, 16]: > 1000 µM

O=C(O)C1C2C=CC(O2)C1C(=O)Oc1ccccc1 (stereo not shown) [MK-3]
IC50 [5]: 647 ± 132 µM | IC50 [6]: 317 ± 17 µM | IC50 [7]: 665 ± 225 µM | IC50 [8]: > 1000 µM | IC50 [9]: 444 ± 27 µM | IC50 [10]: > 1000 µM | IC50 [11]: 620 ± 31 µM | IC50 [12]: 247 ± 55 µM | IC50 [13]: 530 ± 112 µM | IC50 [14, 16]: ≥ 247 µM

COC1OC(=O)C2C3CCC(O3)C12 (stereo not shown) [MK-5]
IC50 [5]: > 1000 µM | IC50 [6]: 567 ± 109 µM | IC50 [7]: > 1000 µM | IC50 [8]: 260 ± 40 µM | IC50 [9]: 247 ± 14 µM | IC50 [10]: 143 ± 23 µM | IC50 [11]: 31 ± 10 µM | IC50 [12]: 323 ± 13 µM | IC50 [13]: 28 ± 1 µM | IC50 ([14]; colon lines, read-out: IC50 range in human colon cancer cell lines): 28 to 247 µM | IC50 ([14]; leukaemia lines, read-out: IC50 range in leukaemia cells): ≥ 323 µM | IC50 ([14]; ovarian lines, read-out: IC50 range in ovarian cells): 260 to 567 µM

C=C1[C@@H](O)[C@@H]2O[C@]3(CC[C@H](/C=C/[C@@H](C)[C@@H]4CC(C)=C[C@@]5(O[C@H](C[C@@](C)(O)C(=O)O)CC[C@H]5O)O4)O3)CC[C@H]2O[C@@H]1[C@@H](O)C[C@H](C)[C@H]1O[C@@]2(CCCCO2)CC[C@H]1C [Okadaic acid]
IC50 [3]: 0.001 µM | IC50 [15]: 0.06 µM

O=C1SC(=O)[C@H]2[C@@H]1[C@@H]1CC[C@H]2O1 [endothal thioanhydride]
Potency relative to cantharidin [3]: three fold more potent than cantharidin

calyculin
IC50 [3]: 0.002 µM | IC50 [15]: 0.0005 to 0.001 µM
